Assay results from patent US20260028321A1, “1,3,4-OXADIAZOLE DERIVATIVE COMPOUNDS AS HISTONE DEACETYLASE 6 INHIBITOR, AND USES THEREOF” (CHONG KUN DANG PHARMACEUTICAL CORP., priority 2022, published 2026).
Each block holds one compound with its values, some of them ahead of it.

Tests used:
HDAC6 human recombinant = HDAC6 human recombinant (Homo sapiens (Human), UniProt Q9UBN7); test: HDAC6 enzyme activity inhibition assay (fluorimetric); type: biochemical; conditions: test substance 0.1-1000 nM; 37° C. 60 minutes, developer 30 minutes; fluorescence Ex 390, Em 460
HDAC6 human recombinant, sequence (Q9UBN7 whole entry): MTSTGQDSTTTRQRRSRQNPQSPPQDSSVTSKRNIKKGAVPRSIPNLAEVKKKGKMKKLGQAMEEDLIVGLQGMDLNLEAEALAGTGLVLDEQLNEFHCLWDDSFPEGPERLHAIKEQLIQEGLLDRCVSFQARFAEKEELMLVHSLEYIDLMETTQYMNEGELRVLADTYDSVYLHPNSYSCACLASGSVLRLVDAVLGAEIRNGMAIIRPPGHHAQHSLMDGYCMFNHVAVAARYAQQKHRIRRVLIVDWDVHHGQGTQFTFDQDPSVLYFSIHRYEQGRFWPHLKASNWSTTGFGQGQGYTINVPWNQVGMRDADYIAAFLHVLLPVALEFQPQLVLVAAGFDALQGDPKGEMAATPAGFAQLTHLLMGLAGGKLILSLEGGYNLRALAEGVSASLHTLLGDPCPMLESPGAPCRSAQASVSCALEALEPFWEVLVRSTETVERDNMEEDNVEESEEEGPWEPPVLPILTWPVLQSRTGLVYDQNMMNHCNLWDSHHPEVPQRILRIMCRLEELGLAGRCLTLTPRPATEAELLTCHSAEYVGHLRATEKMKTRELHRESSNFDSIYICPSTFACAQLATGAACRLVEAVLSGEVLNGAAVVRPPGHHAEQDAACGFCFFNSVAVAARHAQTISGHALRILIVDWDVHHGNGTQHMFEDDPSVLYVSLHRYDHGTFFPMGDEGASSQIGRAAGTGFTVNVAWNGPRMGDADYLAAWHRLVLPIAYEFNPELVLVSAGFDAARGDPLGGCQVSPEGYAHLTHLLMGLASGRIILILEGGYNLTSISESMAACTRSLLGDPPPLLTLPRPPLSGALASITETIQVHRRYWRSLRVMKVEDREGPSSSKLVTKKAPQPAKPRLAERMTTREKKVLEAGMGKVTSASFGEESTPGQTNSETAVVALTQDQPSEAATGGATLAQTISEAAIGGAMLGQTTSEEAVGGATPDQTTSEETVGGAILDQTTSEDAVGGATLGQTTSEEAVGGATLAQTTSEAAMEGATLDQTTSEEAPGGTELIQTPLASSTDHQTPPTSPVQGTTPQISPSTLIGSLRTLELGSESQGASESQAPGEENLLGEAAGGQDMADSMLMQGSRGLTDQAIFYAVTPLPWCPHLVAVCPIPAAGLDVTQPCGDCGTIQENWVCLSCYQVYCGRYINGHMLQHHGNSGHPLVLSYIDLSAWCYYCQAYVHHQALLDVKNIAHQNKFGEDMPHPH
Description: (§1) The HDAC enzyme inhibition ability of the test substance was measured using the HDAC1 Fluorimetric Drug Discovery Assay Kit (Enzo life sciences: BML-AK511) and the HDAC6 human recombinant (Calbiochem: 382180). In the HDAC1 assay, the test substance was treated at concentrations of 100, 1000, and 10000 nM, and in the HDAC6 assay, the test substance was treated at concentrations of 0.1, 1, 10, 100, and 1000 nM. After sample treatment, the samples were reacted at 37° C. for 60 minutes, followed by reaction at 37° C. for 30 minutes by treatment with a developer, and fluorescence intensities (Ex 390, Em 460) thereof were measured using FlexStatin3 (Molecular device).

HDAC1 = HDAC1 (Homo sapiens (Human), UniProt Q13547); test: HDAC1 enzyme activity inhibition assay (HDAC1 Fluorimetric Drug Discovery Assay Kit); type: biochemical; conditions: test substance 100, 1000, 10000 nM; 37° C. 60 minutes, developer 30 minutes; fluorescence Ex 390, Em 460
HDAC1, sequence (Q13547 whole entry): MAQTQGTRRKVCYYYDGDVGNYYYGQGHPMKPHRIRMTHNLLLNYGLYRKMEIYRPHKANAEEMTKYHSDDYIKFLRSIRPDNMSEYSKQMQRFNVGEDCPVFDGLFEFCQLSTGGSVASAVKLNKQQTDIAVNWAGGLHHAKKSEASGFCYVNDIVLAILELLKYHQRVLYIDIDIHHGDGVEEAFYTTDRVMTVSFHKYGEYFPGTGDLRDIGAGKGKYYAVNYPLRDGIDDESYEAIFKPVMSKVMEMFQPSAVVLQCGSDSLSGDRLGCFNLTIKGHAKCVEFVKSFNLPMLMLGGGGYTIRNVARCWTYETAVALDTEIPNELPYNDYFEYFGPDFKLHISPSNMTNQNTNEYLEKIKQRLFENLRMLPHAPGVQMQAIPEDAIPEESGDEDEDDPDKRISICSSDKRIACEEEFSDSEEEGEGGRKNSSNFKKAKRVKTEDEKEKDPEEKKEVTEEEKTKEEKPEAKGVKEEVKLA
Description: as §1

SMILES: CC(C)N1C[C@@H]2C[C@H]1CN2c1c(N(Cc2ccc(-c3nnc(C(F)F)o3)cn2)c2ccccc2)c(=O)c1=O [Compound 16, 3-(((5-(5-(difluoromethyl)-1,3,4-oxadiazol-2-yl)pyridin-2-yl)methyl)(phenyl)amino)-4-((1S,4S)-5-isopropyl-2,5-diazabicyclo[2.2.1]heptan-2-yl)cyclobut-3-ene-1,2-dione]
IC50 (HDAC6 human recombinant): 0.028 µM
IC50 (HDAC1): > 10 µM

SMILES: O=c1c(N(Cc2ccc(-c3nnc(C(F)F)o3)cn2)c2ccccc2)c(N2C[C@@H]3C[C@H]2CN3C2COC2)c1=O [Compound 17, 3-(((5-(5-(difluoromethyl)-1,3,4-oxadiazol-2-yl)pyridin-2-yl)methyl)(phenyl)amino)-4-((1S,4S)-5-(oxetan-3-yl)-2,5-diazabicyclo[2.2.1]heptan-2-yl)cyclobut-3-ene-1,2-dione]
IC50 (HDAC6 human recombinant): 0.043 µM
IC50 (HDAC1): > 10 µM

SMILES: CN1CCN(c2c(N(Cc3ccc(-c4nnc(C(F)F)o4)cn3)c3cccc(-c4cccnc4)c3)c(=O)c2=O)CC1 [Compound 18, 3-(((5-(5-(difluoromethyl)-1,3,4-oxadiazol-2-yl)pyridin-2-yl)methyl)(3-(pyridin-3-yl)phenyl)amino)-4-(4-methylpiperazin-1-yl)cyclobut-3-ene-1,2-dione]
IC50 (HDAC6 human recombinant): 0.051 µM
IC50 (HDAC1): > 10 µM

SMILES: CN1CCN(c2c(N(Cc3ccc(-c4nnc(C(F)F)o4)cn3)c3cccc(-c4ccncc4)c3)c(=O)c2=O)CC1 [Compound 19, 3-(((5-(5-(difluoromethyl)-1,3,4-oxadiazol-2-yl)pyridin-2-yl)methyl)(3-(pyridin-4-y 1)phenyl)amino)-4-(4-methylpiperazin-1-yl)cyclobut-3-ene-1,2-dione]
IC50 (HDAC6 human recombinant): 0.102 µM
IC50 (HDAC1): > 10 µM

SMILES: CN1C[C@@H]2C[C@H]1CN2c1c(N(Cc2ncc(-c3nnc(C(F)F)o3)cc2F)c2ccccc2)c(=O)c1=O [Compound 20, 3-(((5-(5-(difluoromethyl)-1,3,4-oxadiazol-2-yl)-3-fluoropyridin-2-yl)methyl)(phenyl)amino)-4-((1S,4S)-5-methyl-2,5-diazabicyclo[2.2.1]heptan-2-yl)cyclobut-3-ene-1,2-dione]
IC50 (HDAC1): > 10 µM

SMILES: O=c1c(N(Cc2ncc(-c3nnc(C(F)F)o3)cc2F)c2ccccc2)c(N2C[C@@H]3C[C@H]2CN3C2COC2)c1=O [Compound 21, 3-(((5-(5-(difluoromethyl)-1,3,4-oxadiazol-2-yl)-3-fluoropyridin-2-yl)methyl)(phenyl)amino)-4-((1S,4S)-5-(oxetan-3-yl)-2,5-diazabicyclo[2.2.1]heptan-2-yl)cyclobut-3-ene-1,2-dione]
IC50 (HDAC1): > 10 µM

SMILES: CN1CCN(c2c(N(Cc3ccc(-c4nnc(C(F)F)o4)cc3F)c3ccc(F)c(F)c3)c(=O)c2=O)CC1 [Compound 22, 3-((4-(5-(difluoromethyl)-1,3,4-oxadiazol-2-yl)-2-fluorobenzyl)(3,4-difluorophenyl)amino)-4-(4-methylpiperazin-1-yl)cyclobut-3-ene-1,2-dione]
IC50 (HDAC6 human recombinant): 0.064 µM
IC50 (HDAC1): > 10 µM

SMILES: O=c1c(N2CCN(C3COC3)CC2)c(N(Cc2ccc(-c3nnc(C(F)F)o3)cc2F)c2ccc(F)c(F)c2)c1=O [Compound 23, 3-((4-(5-(difluoromethyl)-1,3,4-oxadiazol-2-yl)-2-fluorobenzyl)(3,4-difluorophenyl)amino)-4-(4-(oxetan-3-yl)piperazin-1-yl)cyclobut-3-ene-1,2-dione]
IC50 (HDAC6 human recombinant): 0.05 µM
IC50 (HDAC1): > 10 µM

SMILES: O=c1c(N2CCOCC2)c(N(Cc2ccc(-c3nnc(C(F)(F)F)o3)cc2)c2ccccc2)c1=O [Compound 24, 3-morpholino-4-[N-[[4-[5-(trifluoromethyl)-1,3,4-oxadiazol-2-yl]phenyl]methyl]anilino]cyclobut-3-ene-1,2-dione]
IC50 (HDAC6 human recombinant): 0.161 µM
IC50 (HDAC1): > 10 µM

Now from value to compound:

IC50 (HDAC6 human recombinant): 0.022 µM
IC50 (HDAC1): > 10 µM
SMILES: CN1CCN(c2c(N(Cc3ccc(-c4nnc(C(F)F)o4)cc3F)c3ccccc3)c(=O)c2=O)CC1 [Compound 1, 3-((4-(5-(difluoromethyl)-1,3,4-oxadiazol-2-yl)-2-fluorobenzyl)(phenyl)amino)-4-(4-methylpiperazin-1-yl)cyclobut-3-ene-1,2-dione]

IC50 (HDAC1): > 10 µM
SMILES: O=c1c(N2CCOCC2)c(N(Cc2ccc(-c3nnc(C(F)F)o3)cc2F)c2ccccc2)c1=O [Compound 2, 3-((4-(5-(difluoromethyl)-1,3,4-oxadiazol-2-yl)-2-fluorobenzyl)(phenyl)amino)-4-morpholinocyclobut-3-ene-1,2-dione]

IC50 (HDAC6 human recombinant): 0.027 µM
IC50 (HDAC1): > 10 µM
SMILES: O=c1c(N2CCS(=O)(=O)CC2)c(N(Cc2ccc(-c3nnc(C(F)F)o3)cc2F)c2ccccc2)c1=O [Compound 3, 3-((4-(5-(difluoromethyl)-1,3,4-oxadiazol-2-yl)-2-fluorobenzyl)(phenyl)amino)-4-(1,1-dioxidothiomorpholino)cyclobut-3-ene-1,2-dione]

IC50 (HDAC6 human recombinant): 0.031 µM
IC50 (HDAC1): > 10 µM
SMILES: CN1CCN(c2c(N(Cc3ccc(-c4nnc(C(F)F)o4)cc3)c3ccccc3)c(=O)c2=O)CC1 [Compound 4, 3-((4-(5-(difluoromethyl)-1,3,4-oxadiazol-2-yl)benzyl)(phenyl)amino)-4-(4-methylpiperazin-1-yl)cyclobut-3-ene-1,2-dione]

IC50 (HDAC6 human recombinant): 0.029 µM
IC50 (HDAC1): > 10 µM
SMILES: O=c1c(N2CCS(=O)(=O)CC2)c(N(Cc2ccc(-c3nnc(C(F)F)o3)cc2)c2ccccc2)c1=O [Compound 5, 3-((4-(5-(difluoromethyl)-1,3,4-oxadiazol-2-yl)benzyl)(phenyl)amino)-4-(1,1-dioxidothiomorpholino)cyclobut-3-ene-1,2-dione]

IC50 (HDAC1): > 10 µM
SMILES: O=c1c(N2CCS(=O)(=O)CC2)c(N(Cc2ncc(-c3nnc(C(F)F)o3)cc2F)c2ccccc2)c1=O [Compound 6, 3-(((5-(5-(difluoromethyl)-1,3,4-oxadiazol-2-yl)-3-fluoropyridin-2-yl)methyl)(phenyl)amino)-4-(1,1-dioxidothiomorpholino)cyclobut-3-ene-1,2-dione]

IC50 (HDAC6 human recombinant): 0.036 µM
IC50 (HDAC1): > 10 µM
SMILES: CN1CCN(c2c(N(Cc3ccc(-c4nnc(C(F)F)o4)cc3F)c3cc(F)cc(Br)c3)c(=O)c2=O)CC1 [Compound 7, 3-((3-bromo-5-fluorophenyl)(4-(5-(difluoromethyl)-1,3,4-oxadiazol-2-yl)-2-fluorobenzyl)amino)-4-(4-methylpiperazin-1-yl)cyclobut-3-ene-1,2-dione]

IC50 (HDAC6 human recombinant): 0.035 µM
IC50 (HDAC1): > 10 µM
SMILES: CN1CCN(c2c(N(Cc3ccc(-c4nnc(C(F)F)o4)cc3F)c3cc(F)cc(-c4cccnc4)c3)c(=O)c2=O)CC1 [Compound 8, 3-((4-(5-(difluoromethyl)-1,3,4-oxadiazol-2-yl)-2-fluorobenzyl)(3-fluoro-5-(pyridin-3-yl)phenyl)amino)-4-(4-methylpiperazin-1-yl)cyclobut-3-ene-1,2-dione]

IC50 (HDAC6 human recombinant): 0.056 µM
IC50 (HDAC1): > 10 µM
SMILES: O=c1c(N2CC3(C2)CN(C2COC2)C3)c(N(Cc2ccc(-c3nnc(C(F)F)o3)cc2F)c2ccccc2)c1=O [Compound 10, 3-((4-(5-(difluoromethyl)-1,3,4-oxadiazol-2-yl)-2-fluorobenzyl)(phenyl)amino)-4-(6-(oxetan-3-yl)-2,6-diazaspiro[3.3]heptan-2-yl)cyclobut-3-ene-1,2-dione]

IC50 (HDAC6 human recombinant): 0.06 µM
IC50 (HDAC1): > 10 µM
SMILES: CN1CC2(C1)CN(c1c(N(Cc3ccc(-c4nnc(C(F)F)o4)cc3)c3ccccc3)c(=O)c1=O)C2 [Compound 11, 3-((4-(5-(difluoromethyl)-1,3,4-oxadiazol-2-yl)benzyl)(phenyl)amino)-4-(6-methyl-2,6-diazaspyro[3.3]heptan-2-yl)cyclobut-3-ene-1,2-dione]

IC50 (HDAC6 human recombinant): 0.03 µM
IC50 (HDAC1): > 10 µM
SMILES: CN1CCN(c2c(N(Cc3ccc(-c4nnc(C(F)F)o4)cc3F)c3cccc(Br)c3)c(=O)c2=O)CC1 [Compound 12, 3-((3-bromophenyl)(4-(5-(difluoromethyl)-1,3,4-oxadiazol-2-yl)-2-fluorobenzyl)amino)-4-(4-methylpiperazin-1-yl)cyclobut-3-ene-1,2-dione]

IC50 (HDAC6 human recombinant): 0.024 µM
IC50 (HDAC1): > 10 µM
SMILES: O=c1c(N(Cc2ccc(-c3nnc(C(F)F)o3)cc2F)c2ccccc2)c(N2C[C@@H]3C[C@H]2CN3C2COC2)c1=O [Compound 13, 3-((4-(5-(difluoromethyl)-1,3,4-oxadiazol-2-yl)-2-fluorobenzyl)(phenyl)amino)-4-((1S,4S)-5-(oxetan-3-yl)-2,5-diazabicyclo[2.2.1]heptan-2-yl)cyclobut-3-ene-1,2-dione]

IC50 (HDAC1): > 10 µM
SMILES: CN1C[C@@H]2C[C@H]1CN2c1c(N(Cc2ccc(-c3nnc(C(F)F)o3)cc2F)c2ccccc2)c(=O)c1=O [Compound 14, 3-((4-(5-(difluoromethyl)-1,3,4-oxadiazol-2-yl)-2-fluorobenzyl)(phenyl)amino)-4-((1S,4S)-5-methyl-2,5-diazabicyclo[2.2.1]heptan-2-yl)cyclobut-3-ene-1,2-dione]

IC50 (HDAC6 human recombinant): 0.022 µM
IC50 (HDAC1): > 10 µM
SMILES: CN1C[C@@H]2C[C@H]1CN2c1c(N(Cc2ccc(-c3nnc(C(F)F)o3)cn2)c2ccccc2)c(=O)c1=O [Compound 15, 3-(((5-(5-(difluoromethyl)-1,3,4-oxadiazol-2-yl)pyridin-2-yl)methyl)(phenyl)amino)-4-((1S,4S)-5-methyl-2,5-diazabicyclo[2.2.1]heptan-2-yl)cyclobut-3-ene-1,2-dione]
